In BindingDB's records for patent US20240294551 (Amgen, 2024) one finds IC50 data, which are given here for eight molecules.

The target of one test is GTPase KRas [G12D] (Homo sapiens, UniProt P01116, G12D). The experiment in a line: TR-FRET Assay. Here is the method:
Compounds of interest were prepared in a dose-response titration in DMSO, and 80 nL were added via Labcyte Echo to each well of a 384-well plate (Perkin Elmer 6008280). The His-tagged KRAS G12D protein (Amgen) was diluted to 20 nM in Assay Buffer (20 mM HEPES, pH 7.4, 10 mM MgCl2, 50 mM NaCl, 0.1% BSA, 0.01% Tween-20, 10 μM GDP) and 2 μL was added to the appropriate wells of the 384-well plate. The plate was incubated for 30 minutes at room temperature. Biotinylated KRPep-2d substrate (Amgen) was diluted to 20 nM in Assay Buffer and 2 μL was added to all wells and incubated for 1 hour at room temperature. Detection Reagent (0.4 nM LANCE Eu-W1024 Anti-6×His (Perkin Elmer AD0401), 5 nM streptavidin-d2 (Cisbio 610SADLA)) was prepared in Assay Buffer, then 4 μL was added to the plate and incubated for 1 hour at room temperature. Plates were read using PerkinElmer EnVision (ex: 320 nm, em1: 665 nm, em2: 615 nm) and em1/em2 data was used to generate curve fits using a 4-parameter logistic model to calculate IC50 values.

The target of the next test is GTPase KRas [G12D,C118A] (Homo sapiens, UniProt P01116, C118A/G12D). Kind of test: Coupled Nucleotide Exchange Assay. The procedure: Following compound pre-incubation, purified SOS protein (aa 564-1049) and GTP (Roche 10106399001) were added to the assay wells and incubated for an additional 30 min. To determine the extent of inhibition of SOS-mediated nucleotide exchange, purified GST-tagged cRAF (aa 1-149), nickel chelate AlphaLISA acceptor beads (PerkinElmer AL108R), and AlphaScreen glutathione donor beads (PerkinElmer 6765302) were added to the assay wells and incubated for 10 minutes. The assay plates were then read on a PerkinElmer EnVision Multilabel Reader, using AlphaScreen technology, and data were analyzed using a 4-parameter logistic model to calculate IC50 values.
GTPase KRas [G12D,C118A], sequence (P01116 whole entry G12D/C118A, looked up, the tested form may be a part): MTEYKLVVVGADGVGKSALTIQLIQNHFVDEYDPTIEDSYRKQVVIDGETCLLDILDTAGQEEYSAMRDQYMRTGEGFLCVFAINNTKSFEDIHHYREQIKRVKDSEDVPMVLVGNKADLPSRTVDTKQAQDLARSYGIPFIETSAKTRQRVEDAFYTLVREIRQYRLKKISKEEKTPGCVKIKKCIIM

pIC50: −log10 of the molar value.

GTPase KRas [G12D], sequence (P01116 whole entry G12D): as the sequence (P01116 whole entry G12D/C118A, looked up, the tested form may be a part) above, with A118C counted along it

In the case of `Cc1cc2[nH]ncc2c2c1CCCOC(=O)O[C@@H]1COCCN(C1)c1nc(OC[C@@]34CCCN3C[C@H](F)C4)nc3c(F)c-2ccc13` [US20240294551, Example 192], the pIC50 was 8.40 against GTPase KRas [G12D] and 8.70 against GTPase KRas [G12D,C118A].

For the molecule `Fc1c2ncc3c(nc(OC[C@@]45CCCN4C[C@H](F)C5)nc13)N1CCC[C@@H](CSCCCCc3c(Cl)cc4[nH]ncc4c3-2)C1` [US20240294551, Example 143], the pIC50 was 8.52 against GTPase KRas [G12D] and 8.70 on GTPase KRas [G12D,C118A].

Regarding `Fc1c2ncc3c(nc(OC[C@@]45CCCN4C[C@H](F)C5)nc13)N1CCOC[C@H](C1)c1noc(n1)CCCc1c(Cl)cc3[nH]ncc3c1-2` [US20240294551, Example 381], the pIC50 against GTPase KRas [G12D] is 8.30; on GTPase KRas [G12D,C118A], 9.00.

Consider `Cc1cc2[nH]ncc2c2c1CCCOC(=O)N1CC[C@@H]3CCN(C[C@@H]31)c1nc(OC[C@@]34CCCN3C[C@H](F)C4)nc3c(F)c-2ncc13` (mixture of isomers) [US20240294551, Example 75], for which the pIC50 against GTPase KRas [G12D] was 7.70; at GTPase KRas [G12D,C118A] it was 7.89.

Take `CN(C)CC1(COc2nc3c4cnc(c(F)c4n2)-c2c(c(Cl)cc4[nH]ncc24)CCCOC(=O)O[C@@H]2COCCN3C2)CC1` [US20240294551, Example 195]: the pIC50 against GTPase KRas [G12D] is 8.40; against GTPase KRas [G12D,C118A], 8.70.

As to `Fc1c2ncc3c(nc(OC[C@@]45CCCN4C[C@H](F)C5)nc13)N1CCC[C@H](C1)c1coc(n1)CCCc1c(Cl)cc3[nH]ncc3c1-2` [US20240294551, Example 157], the results for the pIC50 on GTPase KRas [G12D] and against GTPase KRas [G12D,C118A] were 8.70 and 9.00, respectively.

In the case of `O[C@@H]1CCOCCc2c(Cl)cc3[nH]ncc3c2-c2ncc3c(nc(OC[C@@]45CCCN4C[C@H](F)C5)nc3c2F)N2CCC[C@@H]1C2` [US20240294551, Example 404], the negative-log IC50 (pIC50) on GTPase KRas [G12D] is 8.00; against GTPase KRas [G12D,C118A], 8.22.

For the molecule `Cc1cc2[nH]ncc2c2c1CCCOC(=O)O[C@@H]1COCCN(C1)c1nc(OC[C@@]34CCCN3C[C@H](F)C4)nc3c(F)c-2c(F)cc13` [US20240294551, Example 102], the pIC50 at GTPase KRas [G12D] is 8.52; on GTPase KRas [G12D,C118A], 8.70.
